The target in experiment [1] is T1, ecto-F1-ATPase (HepG2 cells) (Homo sapiens, UniProt P06576).
T1 construct: host or cells: HepG2
Briefly: ecto-F1-ATPase activity: extracellular ADP content, luciferin-luciferase assay. It counts as cell-based. The following applies: HepG2, 5 min; for extracellular ADP concentration (ecto-F1-ATPase hydrolytic activity): peptide 0.1 to 5 μM (formula (I)) or 1 μM, effect blunted by IF1 1 μM. As to the method:
The human hepatocyte cell line HepG2 was obtained from the American Type Culture Collection (#HB-8065). HepG2 were cultured in Dulbecco's Modified Eagle's Medium (DMEM)—high glucose (D0822, Sigma-Aldrich) supplemented with 10% fetal bovine serum (10270098, Life technologies), 1% Penicillin-Streptomycin solution (P0781, Sigma-Aldrich). HepG2 cells were seeded on 24-well plates at 75,000 cells/well (Day 0). After 24 hours of growing, cells were serum starved for 24 h in order to synchronize cell cycles (Day 1) and then replaced additional 24 h in complete cell growth medium (Day 2). On day 3, cells were washed and equilibrated in fresh DMEM—high glucose without red phenol for 1 h (D1145, Sigma-Aldrich).
The cells were then treated 5 min with different concentration of peptide of formula (I) (0.1 to 5 μM), the peptide of formula (II) (1 μM), SCR (1 μM), SCR-K-16 (1 μM) or apoA-I (10 μg/mL) purified from human plasma.
Specific ecto-F1-ATPase activation was assessed in the presence of IF1 protein (1 μM), a natural inhibitor of F1-ATPase that interacts with the β-subunit to inhibit the ATP hydrolysis activity [5].
Supernatants were then collected and centrifuged (10,000 g, 5 min, 4° C.) and processed for ADP and ATP measurement. For ADP measurement, ADP was converted into ATP in 150 mM NaCl, 5 mM KCl, 2 mM MgCl2, pH 7.5 buffer containing 0.5 mM phosphoenolpyruvate (PEP) and pyruvate kinase (PK, 6 U per point for 15 min at 37° C.). For ATP measurement, 100 μl of sample was analyzed using the ATP bioluminescence assay kit CLS II (Roche Diagnostics). Samples were added to the ATP assay mixture and luminescence was measured in a microplate reader Infinite F500 (Tecan, Switzerland) for 1000 ms. The ATP standard curve was produced in the same medium as the samples and in the 10^−5 to 10^−10 M concentration range. The ADP concentration was then calculated as the ATP concentration following ADP conversion minus the basal ATP concentration. Data are expressed as nanomoles of ADP produced.

Another experiment deals with HepG2 cells. Briefly: Oleate/palmitate-induced steatosis, intracellular triglyceride content. The format is cell-based, human. The following applies: 1 μM, last 24 h of 48 h oleate/palmitate 0.5 mM (2:1). The procedure: A solution containing 250 mM palmitate (P0500, Sigma-Aldrich) was first prepared in 0.1 M NaOH at 70 C for 30 min then diluted in DMEM low glucose (D5546, Sigma-Aldrich) containing 10% fatty acid-free BSA (A7030, Sigma-Aldrich) to yield a 10 mM palmitate solution and allowed to dissolve for 30 min at 37° C., filter sterilized and stored in glass vial at −20 C until use. This palmitate stock solution and ready to use oleate solution (03008, Sigma-Aldrich) were used to prepared a 0.5 mM solution at a 2:1 ratio of oleate to palmitate in complete culture medium containing DMEM low glucose, 10% fetal bovine serum, 1% Penicillin-Streptomycin and 1% fatty acid-free BSA.
HepG2 cell were grown in 12-well plates to 60-70% confluence then exposed for 48 h to culture medium (DMEM low glucose, 10% fetal bovine serum, 1% Penicillin-Streptomycin and 1% fatty acid-free BSA) alone or containing 0.5 mM oleate/palmitate mixture (2:1) to induce steatosis. For the last 24 h of the 48 h period, cells were treated with 1 μM of the peptide of formula (I) or the peptide of formula (II).
For measurement of intracellular triglyceride content, cells were washed with PBS and scraped in 5% NP-40 lysis buffer and heated for 10 min at 85° C. Triglycerides were then quantified using triglyceride commercial kit (Biolabo #87319). Values were normalized to protein concentration in cell lysates.

Experiment [2] has as its system C57B/L6J mice fed western-diet. Briefly: Western diet-induced hepatic steatosis mouse model. It counts as in vivo. The following applies: ip daily 1 mg/kg/day. As to the method:
Wild-type C57B/L6J male mice were purchased from Janvier Labs (Le Genest Saint Isle, France). Mice were caged in animal rooms under specific pathogen free conditions at the animal facility of Rangueil (Anexplo platform, US006, Toulouse, France) with a light/dark schedule of 12 h/12 h. At the initiation of the dietary intervention, all animals were 8 weeks old and were fed ad libitum with a normal chow diet (#V1535 R/M-H, Ssniff, Germany). All animal experimental procedures were conducted in accordance with institutional guidelines on animal experimentation approved by the local ethical committee of animal care and are conformed to the guidelines from Directive 2010/63/EU of the European Parliament on the protection of animals used for scientific purposes or the NIH guideline.
8 weeks old mice were fed fed western-diet for 4-weeks (Envigo #TD.88137 containing 0.2% cholesterol, 42% kcal from fat, 34% sucrose by weight). For the 2 last weeks of the 4-week period, mice were daily intraperitoneally administrated at 1 mg/kg/day with the peptide of formula (I) or PBS (control group). Following the treatment period, mice were fasted overnight, anesthetized by intra-peritoneal injection of ketamine and xylazine hydrochloride then killed by exsanguination. Body weight, liver triglyceride content, plasma lipids and transaminases were determined at sacrifice.
100 mg of liver tissue were homogenized in 900 μL of phosphate buffer pH 7.4 until complete tissue lysis. Lipids were extracted by mixing 125 μL of lysates with 1 mL of CHCl3:MeOH (2:1). After centrifugation, the chloroform phase was evaporated under nitrogen flux, and the dried residue was solubilized in 200 μL of isopropanol. Triglycerides were measured using commercial kits based on GPO-PAP detection method (Biolabo SA, Maizy, France). Results were expressed as mg of triglycerides/g liver.
Triglycerides and cholesterol levels were determined using commercial colorimetric kits (Biolabo SA, Maizy, France) based on CHOD-PAP and GPO-PAP detection methods, coupling enzymatic reaction and spectrophotometric detection of reaction end products. Alanine-aminotransferase (ALT) and aspartate-aminotransferase (AST) levels were determined using a COBAS-MIRA+ biochemical analyser (Anexplo facility, Toulouse, France).
Blood glucose levels were measured by tail vein sampling with portable glucometer (Accu-check, Roche) 30 min before oral glucose load and at 0, 15, 30, 45, 60, 90 and 120 min after oral glucose load. Plasma insulin concentration was determined 30 min before and 15 min after glucose loading in 5 μL of plasma using an ELISA kit (Mercodia, Uppsala, Sweden) according to the manufacturer's instructions.

Peptide text beside a SMILES is read from it. * marks the point of attachment. Palmitoyl = CCCCCCCCCCCCCCCC(=O)*

As for `CCCCCCCCCCCCCCCC(=O)NCCCC[C@H](NC(=O)[C@H](CCC(=O)O)NC(=O)[C@H](CCCNC(=N)N)NC(=O)[C@H](CO)NC(=O)[C@H](CCC(N)=O)NC(=O)[C@H](C)NC(=O)[C@H](CCCNC(=N)N)NC(=O)[C@H](Cc1ccccc1)NC(=O)[C@H](Cc1ccc(O)cc1)NC(=O)[C@H](CCCNC(=N)N)NC(=O)[C@H](CCC(=O)O)NC(=O)[C@H](CCC(=O)O)NC(=O)[C@H](CCC(=O)O)NC(=O)[C@H](C)NC(=O)[C@H](CCC(N)=O)NC(=O)[C@H](CCC(=O)O)NC(=O)[C@H](CCCNC(=N)N)NC(=O)[C@H](CCCCN)NC(=O)CNC(=O)[C@H](Cc1ccccc1)NC(=O)[C@H](C)NC(=O)CNC(=O)CNC(=O)[C@H](C)NC(=O)[C@H](CCC(=O)O)NC(=O)[C@H](CCCNC(=N)N)NC(=O)[C@@H](NC(=O)[C@H](CO)NC(=O)CNC(=O)[C@H](C)NC(=O)CNC(=O)[C@H](CCCNC(=N)N)NC(C)=O)[C@@H](C)CC)C(N)=O` [peptide of formula (II), CH3CO-[SEQ ID NO: 1]-K-[palmitoyl]-NH2] (Ac-RGAGSIREAGGAFGKREQAEEERYFRAQSREK(Palmitoyl)-NH2), in experiment [1], the “extracellular ADP concentration (ecto-F1-ATPase hydrolytic activity)” value is listed as “stimulated”. The “reduction of fatty acid-induced intracellular accumulation of triglycerides compared to PBS control” value in the experiment with HepG2 cells came out at 32%. Also, the “oral glucose tolerance (OGTT)” value in experiment [2] (OGTT 10 days after initiation) was “improved”. In experiment [2] (p<0.05 vs PBS), the basal insulin level result was “decreased”. Besides, in experiment [2] (two weeks), the “plasma HDL-cholesterol (HDL-C) level” value is “no effect” and the plasma triglycerides level entry was “no effect”. The liver/body weight ratio entry in experiment [2] (two weeks, p<0.01 vs PBS) was “decrease”. Also, in experiment [2] (two weeks, p<0.05 vs PBS), the hepatic triglyceride concentration result is listed as “reduction”, the “plasma ALT level” value is “significantly reduced” and the “plasma level of total cholesterol” value is listed as “significantly decrease”. For the same molecule, the hepatic steatosis entry in experiment [2] (two weeks, vs PBS) is recorded as “significantly reduced”.
As for “Ac-RGAGSIREAGGAFGKREQAEEERYFRAQSRE-NH2 [peptide of formula (I), CH3CO-[SEQ ID NO: 1]-NH2]”, in experiment [1], the “concentration at which maximum efficacy on extracellular ADP is reached” value was determined as 1 µM and the “extracellular ADP concentration (ecto-F1-ATPase hydrolytic activity)” value is listed as “increased”. Also, the “reduction of fatty acid-induced intracellular accumulation of triglycerides compared to PBS control” value in the experiment with HepG2 cells was found to be 18%.

(Values after patent US20230050846A1, “TREATMENT OF HEPATIC AND CARDIOVASCULAR DISORDERS” (LIFESEARCH, priority 2019, published 2023).)
